Results as given in patent US20050203013A1, “Methods for inhibiting vascular permeability” (priority 2002, published 2005).

Assays:
[1] = test system: VEGF induced vessel permeability; assay: Miles assay (Example 2), VEGF165 challenge; type: in vivo, mice
Description: One of the problems with angiogenesis-dependent diseases is increased vessel permeability (due to high levels of VPF) which results in edema and loss of proteins. A decrease in vessel permeability is beneficial in those diseases. […] Briefly, a dye, Evans Blue (1% in PBS), was injected i.v. to anesthesized mice. After 10 min, human recombinant VEGF165 (50 ng/50 μl) was injected intradermally into the back skin. Leakage of protein-bound dye was detected as blue spots on the underside of the back skin surrounding the injection site. After 20 min mice were euthanized. Then, the skin was excised, left in formamide for 5 days to be extracted and the solution read at 620 nm. Putative angiogenesis inhibitors such as free and conjugated TNP-470 were injected daily 3 days (30 mg/kg/day) prior to the VEGF challenge. The same was repeated on tumor-bearing mice to evaluate the effect of angiogenesis inhibitors on tumor vessel permeability.

skin vessel permeability [2] = assay: Miles vascular permeability assay (Example 3); type: in vivo, SCID mice
Description: SCID mice were injected subcutaneously (s.c.) with TNP-470 or HPMA copolymer-TNP-470 (30 mg/Kg TNP-equiv.) for three days, with Y27632 (50 nM s.c.) for 11 days, with angiostatin (200 mg/kg/day s.c.) for five days, or with saline (250 μl s.c.) for 5 days (n=12) prior to performing the Miles assay ([…] et al., 1996; Miles and Miles, 1952; Streit et al., 2000). Briefly, Evan's blue dye (100 μl of a 1% solution in 0.9% NaCl) was injected intravenously (i.v.) into mice. After 10 minutes, 50 μl of human VEGF165 (1 ng/μl), PAF (100 μM), CNF-1 (100 ng), histamine (1.2 μg/ml) or PBS (50 ul) were injected intradermally into the pre-shaved back skin. After 20 minutes, the animals were euthanized and an area of skin that included the blue spot resulting from leakage of the dye was removed. Evan's blue dye was extracted from the skin by incubation with formamide for 5 days at room temperature, and the absorbance of extracted dye was measured at 620 nm using a spectrophotometer. The unpaired Student t test was used for statistical analysis.

[3] = test system: U87 glioblastoma tumor blood vessel permeability; assay: Miles assay on tumor-bearing mice (Example 3), U87; parameters: species or system SCID mice; conditions: mouse, in vivo
Description: Female SCID mice ( 8 weeks, 20 g) were inoculated s.c. with 5×10^6 viable U87 glioblastoma cells or viable A2058 human melanoma cells or BXPC3 pancreas adenocarcinoma cells. Female nu/nu mice were inoculated with MCF-7 or MDA-MB-231 breast carcinoma cells in the mammary fat pad. C57B1/6J were inoculated with LLC. […] blue dye was then injected i.v. and extravasation of dye assessed as above. Also, blood was withdrawn to measure VPF/VEGF levels in plasma and in tumors (n=5 from each group). Tumors (n=5 per group) were dissected, weighed and cut in half. Half of the tumor was placed in formalin and half was analyzed for VPF/VEGF protein by ELISA (see below). Formalin fixed tumors were processed for sectioning and staining with H & E, CD31, smooth muscle actin (SMA) and proliferating cell nuclear antigen (PCNA) according to the manufacturers' instructions.

[4] = test system: skin capillary permeability; assay: Evans Blue skin permeability assay, intradermal VEGF, endostatin-treated mice; type: in vivo; conditions: FVB/NJ mice, i.p. for 4 days
Description: (§1) The antiangiogenic factor (endostatin) was injected intraperitoneally to FVB/NJ mice for 4 days. Immediately after the last injection, mice were anasthesized and received intravenous injection of 100 μl Evans Blue dye (1% in PBS). Subsequently, different amounts of VEGF165, VEGF121 or saline were injected intradermaly. After 20 minutes, mice were sacrificed and skin flap from the back was removed and photographed. Skin samples from the injection sites were excised and incubated in formamide for 5 days in order to extract the dye and O.D. was measured at 620 nm. […] Quantitative analysis of Evans Blue dye extravasation (FIG. 1) confirmed the lower skin capillary permeability of the antiangiogenic factor-treated mice and indicated the weak permeability-inducing effect of VEGF in these mice.

[5] = test system: skin capillary permeability; assay: Evans Blue skin permeability assay, intradermal PAF, endostatin-treated mice; type: in vivo; conditions: Nude mice
Description: as §1
In order to test if the effects of the antiangiogenic factor (endostatin) on vascular permeability is VEGF-specific, we have tested the effects of intradermal injection of platelet-activating factor (PAF) in Nude mice that were previously injected with the antiangiogenic factor and in control mice, as described above. […] Quantitative analysis of Evans Blue dye extravasation (FIG. 2) confirmed the lower skin capillary permeability of the antiangiogenic factor-treated mice compared with control and the lack of PAF-induced hyperpermeability in these mice. […]

skin vessel permeability [6] = assay: Duration of exposure: Alzet pump endostatin, skin vessel permeability; type: in vivo, mice (SCID)
Description: In order to test if continuous exposure to the antiangiogenic factor (endostatin) is required to repress blood vessel permeability, mice (SCID) were anesthetized and “Alzet” pumps loaded with the antiangiogenic factor or saline were implanted intraperitoneally. The pumps release 1 μl the antiangiogenic factor per hour. Skin vessel permeability using Evans Blue dye was performed as described above. Saline and the antiangiogenic factor treated mice were examined 2, 3 and 4 days after pump implantation, as described above (FIG. 3). […] In both groups, PAF injection induced higher vessel permeability than saline injection. […] However, in both groups PAF injection induced higher vessel permeability than saline injection. […] Since the tumor vessels are continuously permeabilized and plasma proteins contained within the tumor support its vascularization the anti-permeability effect of the antiangiogenic factor offers a possible mechanism for its anti-tumor activity.

[7] = test system: Bovine capillary endothelial cells (BCE); assay: In vitro diffusion of FITC-dextran through endothelial cell monolayer (Transwells); type: cell-based
Description: The effects of the antiangiogenic factor (endostatin) on skin vessel permeability in vivo were tested in an in vitro diffusion model designed to mimic blood vessel permeability. Bovine capillary endothelial cells (BCE) were seeded in collagen coated inserts of “Transwells” and grown to confluence. The antiangiogenic factor was added every 24 hours. Four days later the inserts were washed with BCE culture medium and the following tracers and permeability regulators were added to the inserts. Half of the inserts received 5 mg/ml FITC-labeled dextran 10 kDa and the other half received 5 mg/ml FITC-labeled dextran 70 kDa. In addition, some inserts received 50 ng/ml VEGF165 or 100 nM PAF. Control inserts received BCE culture medium with fluorescent tracers only. The fluorescence in the lower wells was measured after 10, 20, 30, 45 and 60 minutes by transferring the inserts into new wells.
In order to follow the kinetic of the diffusion process, the flow of the tracer was calculated as fluorescent counts per minute (FIGS. 5 and 6). […] In contrast, the flow in control cells was constant and was lower than that observed in PAF and VEGF165-treated cells.

lung tissue = assay: Swelling of lung tissue induced by micro-encapsulated VEGF-producing cells; type: in vivo, Mice; conditions: VEGF producing cells together with endostatin producing cells, 0.5x10^6 encapsulated cells of each
Description: Dilation of the lung tissue may result in lung dysfunction and development of pulmonary hypertension. Mice injected with micro-encapsulated cells producing VEGF (approximately 0.5×10^6 cells per mouse) developed thickened lung parenchyma 5 days after injection. At a higher magnification we observed generation of several cell layers between the alveoli compared with one layer of cells in mice injected with micro-encapsulated control cells or with micro-encapsulated cells producing endostatin (Endost). […] Moreover, treatment with endostatin reduced the number of cell layers between the alveoli and the lungs of mice that were treated with endostatin appeared similar to control mice. Therefore, endostatin appears to block the swelling of lung tissue and may be used for treatment of pulmonary hypertension.

[8] = test system: Bovine capillary endothelial cells (BCE); assay: Immunostaining of tight junction proteins in BCE, endostatin; type: cell-based
Description: Bovine capillary endothelial cells (BCE) were cultured in the presence of 0.2, 0.5 and 2 μg/ml human endostatin for three days. The cells were fixed and immunostained with anti-β-catenin, occludin, and ZO-1 antibodies (Zymed Laboratories, CA). The staining was developed using FITC-conjugated secondary antibodies and visualized under fluorescent microscopy. Immunostaining for β-catenin marked the cell borders and was more intense when two cells contacted each other. […] There was no difference in β-catenin staining between 0.5 and 2.0 μg/ml endostatin. […] Similar results were obtained with ZO-1 immunostaining. […] This is the first documentation of the effects of endostatin on tight junctions that may explain, in part, the mechanism of its antiangiogenic activities. Similar experiments were performed in which BCE were incubated in the presence and absence of 0.5 μg/ml endostatin for 3 days followed by stimulation with PAF for 20 minutes. The cells were fixed and immunostained with anti-α-catenin, occludin, and ZO-1 antibodies (Zymed Laboratories, CA), as described above.

[9] = test system: histamine-induced local edema; assay: Histamine-induced wheal and flare test; type: in vivo; conditions: humans receiving the factor
Description: Antiangiogenic treatment has entered into clinical trials recently. Molecules that are tested in phase 1 and 2 clinical trials include endostatin, angiostatin, TNP-470, thalidomide, anti-VEGF antibodies, PTK787, SU-5416, SU-6668 and others. […] Mice that received endostatin for several days had lower diffusion of Evans blue from the skin capillaries in response to intradermal VEGF and PAF injection compared with normal mice. The existing test of histamine-induced wheal and flare in skin can be used in order to test bioactivity of endostatin and other antiangiogenic factors. Intradermal injection of histamine leads to the formation of local adema ([…]) due to blood vessel hyperpermiability. […] This test will serve as an early surrogate marker for the bioactivity of endostatin and other antiangiogenic factors and help to determine the treatment's efficiency in individual patients.

## O=C1CCC(N2C(=O)c3ccccc3C2=O)C(=O)N1 (stereo not shown) [Thalidomide]
[1]
  effect on VEGF induced vessel permeability: no effect
Skin vessel permeability [2]; VPF/VEGF intradermal
  effect on VPF/VEGF-induced vessel permeability: no significant effect

## C[C@@H](N)[C@H]1CC[C@H](C(=O)Nc2ccncc2)CC1 [Y27632]
Skin vessel permeability [2]; CNF-1 intradermal
  CNF-1-induced Evan's blue-albumin extravasation: inhibited
Skin vessel permeability [2]; VPF/VEGF intradermal
  effect on VPF/VEGF-induced vessel permeability: inhibited

## angiostatin
Skin vessel permeability [2]; PAF intradermal
  decrease of PAF-induced permeability: 37%
Skin vessel permeability [2]; VPF/VEGF intradermal
  inhibition of Evan's blue dye extravasation from VPF/VEGF injection sites: 40%
Skin vessel permeability [2]; histamine intradermal
  decrease of histamine-induced permeability: 51%
[3]
  Evan's blue extravasation into U87 glioblastomas: did not inhibit

## endostatin
[4]; intradermal VEGF165/VEGF121
  VEGF-induced hyperpermeability (Evans Blue extravasation): minor induction of hyperpermeability
[4]; vs control mice
  Evans Blue dye leakage from skin capillaries: overall lower dye leakage than the control
[5]
  PAF-induced vascular permeability: repressed
Skin vessel permeability [6]; SCID mice, intraperitoneal Alzet pump
  duration of treatment required to reduce skin vessel permeability: at least 3 days
Skin vessel permeability [6]; day two after pump implantation
  blood vessel permeability in response to PAF injection vs saline treated mice: no significant difference
[7]; 10 kDa and 70 kDa dextrans
  flow of the tracer (fluorescent counts per minute): significant reduced flow
[7]; BCE monolayer pre-treated 4 days, FITC-dextran 10 kDa and 70 kDa, vs control, VEGF165- and PAF-treated cells
  sum of fluorescent count over 60 minutes: significantly lower fluorescent counts
Lung tissue
  lung tissue appearance (cell layers, extracellular matrix): fewer cell layers and no accumulation of extracellular matrix
[8]; 0.2 μg/ml, three days
  cell boundary β-catenin staining: intensified
[8]; 0.5 μg/ml for 3 days, then PAF for 20 minutes
  PAF reduction of staining intensity of anti-α-catenin, occludin and ZO-1: not in endostatin-treated cells
[8]; 0.5 μg/ml, three days
  cell boundary β-catenin staining: further intensified
[8]; 0.2-2.0 μg/ml, three days
  ZO-1 immunostaining: Cells boundaries were only visible
[8]; 0.5 and 2.0 μg/ml, three days
  occludin immunostaining: cell boundaries were observed
[9]
  zone of edema after intradermal histamine: reduced zone of edema
